Key:
human GLP-1R receptor = biological target: T1, human GLP-1R receptor (Homo sapiens, UniProt P43220, L260F); assay: CHOK1 GLP-1R cAMP Assay (HTRF); assay type: cell-based; settings: CHO-K1 cells stably expressing human GLP-1R (Leu260Phe variant), 20 min at rt
T1 construct: expressed in transfected cells; host or cells: CHO-K1 (ATCC CCL-61)
Method: A cell line stably expressing the human GLP-1R receptor (NM_002062.5, including the naturally-occurring variant Leu260Phe) in a CHO-K1 (ATCC® CCL-61™) was used for assay.
GLP-1 receptor mediated agonist activity was determined in a cell-based assay measuring cyclic adenosine monophosphate (cAMP) levels in cells using Homogeneous Time-Resolved Fluorescence (HTRF) cAMP detection kit (CisBio catalog #62AM4PEC, cAMP Gs Dynamic range kit). The cAMP detection method is based on a competitive immunoassay, in which cAMP produced by the cells and cAMP labeled with the dye d2 compete for binding to a Europium-Cryptate-labeled anti-cAMP antibody. The specific HTRF signal is inversely proportional to the concentration of cAMP.
Compounds were added to individual well in 384 well-assay plates (Greiner #784076) using an Echo (LabCyte) dispenser from 10 mM stocks. Varying concentration of compounds were added to wells, and DMSO was used to normalize each well to a volume of 100 nL. A dose response curve of GLP-1(7-36)NH2 (Bachem H-6795) was included in each run. 5 μL of cAMP concentration response standards are applied in specified wells in the assay plates. Cryo-preserved cells are thawed and resuspended in assay buffer pre-heated to 37° C. (20 mM 2-[4-(2-hydroxyethyl)piperazin-1-yl]ethanesulfonic acid (HEPES) pH 7.4, 1× Hank's Balanced Salt Solution (HBSS, Life Technologies #14065) supplemented with 0.1% (w/v) bovine serum albumin (Sigma, A-7030)). Cells were centrifuged at 250*g for 5 min at rt, and resuspended in room tempered assay buffer to a final density of 0.16*10^6 cell/mL, to deliver 800 cells/well. 5 μL of assay buffer with 1 mM 3-isobutyl-1-methylxanthin (IBMX; Sigma cat I-7018) was dispensed per well in assay plates using a multidrop combi (Thermo Scientific) subsequently 5 μL of cell suspension was distributed to relevant wells in the assay using a multidrop dispenser. Assay plates were incubated 20 min at rt.
Detection reagents, Europium-Cryptate-labeled anti-cAMP antibody and cAMP labeled with the dye d2, are diluted in lysis buffer, provided by the manufacturer. 5 μL of each detection reagent is supplemented to each assay well using a multidrop dispenser. Assay plates are incubated in the dark for at least one h. The HTRF signal is measured using the HTRF module (excitation: 337 nm, emission A: 665 nm and emission B: 620 nm) in Pherastar FSX (BMG Labtech).
Raw data were converted to pM cAMP using the cAMP standard curve included in each run. Converted data were further analyzed in Genedata Screener (Genedata) and EC50 determinations were made from agonist dose-response curves analyzed with a curve fitting is program using a 4-parameter logistic dose response equation (Equation y=A+((B-A)/1+((C/x)^D))) where A is no stimulation, B is full stimulation, C is the EC50 and D is the Hill slope). The percent effect was determined relative to a saturating concentration of a full GLP-1R agonist (GLP-1(7-36)NH2 has 100% effect in this assay setup).

[1] = biological target: T2, GLP-1R in a pancreatic insulinoma cell line (EndoC-PH1) (Homo sapiens, UniProt P43220); assay: EndoC cAMP Accumulation Assay (HTRF); assay type: cell-based; settings: EndoC-PH1 human pancreatic beta cell line, endogenous GLP-1R, 30 min at rt
T2 construct: host or cells: EndoC-βH1 human pancreatic beta cell line
T2 sequence (P43220 24-463): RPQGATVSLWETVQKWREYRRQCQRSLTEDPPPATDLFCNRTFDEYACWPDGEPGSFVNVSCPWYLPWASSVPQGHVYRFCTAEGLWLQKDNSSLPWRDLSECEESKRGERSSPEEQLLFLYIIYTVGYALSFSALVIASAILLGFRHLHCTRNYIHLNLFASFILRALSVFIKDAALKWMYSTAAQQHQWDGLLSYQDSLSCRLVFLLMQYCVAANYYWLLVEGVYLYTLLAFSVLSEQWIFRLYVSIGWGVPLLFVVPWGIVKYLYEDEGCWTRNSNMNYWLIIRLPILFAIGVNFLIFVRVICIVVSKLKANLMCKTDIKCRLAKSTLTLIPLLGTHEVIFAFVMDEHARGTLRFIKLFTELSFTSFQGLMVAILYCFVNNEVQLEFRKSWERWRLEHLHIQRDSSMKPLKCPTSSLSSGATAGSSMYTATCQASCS
Excerpt: EndoC cAMP Accumulation Assay
A HTRF cAMP assay (cAMP Gs dynamic kit; CisoBio Cat #62AM4PEJ) was used to identify agonists of GLP-1R in a pancreatic insulinoma cell line (EndoC-PH1). […] EndoC-PHlcells have detectable GLP-1R messenger ribonucleic acid (mRNA) as detected by quantitative polymerase chain reaction (qPCR). […] The EndoC-PH1 cell line is a valid model of human beta cells and applicable for screenings to identify novel drug target candidates (Mol. Metab., 2018, 8, 144-157). CisBio HTRF cAMP kits are based on a competitive immunoassay using cryptate-labelled anti-cAMP antibody and d2-labeled cAMP. The detection kit is intended for the direct is quantitative determination of cAMP. The specific signal (i.e. energy transfer) is inversely proportional to the concentration of cAMP in the standard or sample. Test compounds (10 mM in DMSO) were diluted into assay buffer (HBSS (Sigma #H8264) supplemented with 25 mM HEPES (Gibco #15630, pH 7.4), 0.1% BSA (Sigma #A3059) and 0.5 mM IBMX (Sigma #I7018) included fresh on the day of the assay) into 96 well U-bottom plates (Greiner #650201). Diluted compounds were transferred to ECHO source polypropelene plates (Labcyte #P-05525) and dose response curves were dispensed acoustically using ECHO 550 into black shallow-well u-bottom 384-well HTRF Assay Plates (Corning 4514). Cryovials of EndoC-H1 (supplied at 1×10e^7 cells/vial) were used directly for screening. The cryovials and were removed from N2(1) and thawed rapidly in a 37° C. water bath. The cells were resuspended in assay buffer and centrifuged at 300 g for 5 min. Cells were resuspended in assay buffer at the appropriate concentration, typically at 12e5 cells per mL (3000 cells per well, dependent on cell batch) and 2.5 μL diluted cells were added to all wells of destination plate by Multidrop combi reagent dispenser (Thermofisher). The plates were incubated at rt for 30 min. The assay was stopped by adding 2.5 μL anti-cAMP cryptate solution to all wells and 2.5 μL cAMP-d2 solution (both diluted 1:20 in lysis buffer) to columns 1-22 by Combi drop. A volume of 2.5 μL cAMP-d2 solution was added to wells E23 to P24 and 2.5 μL lysis buffer added to wells A23 to D24 by multichannel pipette. The plates were incubated at rt for 1 h and read on an Envision plate reader using excitation wavelength of 320 nm and emission of […] and 660 nm.
Raw data from Envision is converted to % DeltaF according to the manufacturer's instructions. Dose response curves are analysed via 4-Parameter Logistical Analysis and assay plate Z’ values obtained. Samples are graphed as percentage (%) activation plots compared to […] with assay window defined by negative control as basal cell is cAMP levels and positive control are defined by maximum GIP (82.5 nM) signal. GLP-1 (7-36 amide, Bachem H-6795) dose response curve was included on all plates.

T1 sequence (P43220 24-463 L260F): as the sequence (P43220 24-463) above, with L237F counted along it

| SMILES | EC50 (human GLP-1R receptor) | EC50 [1] |
| --- | --- | --- |
| C[C@]1(c2ccc(Cl)cc2F)Oc2cccc(N3CCN(Cc4nc5c(F)cc(C(=O)O)cc5n4C[C@@H]4CCO4)[C@H]4CC[C@H]43)c2O1 (relative stereo) [Example 9d, 2-((1R*,6S*)-5-(R*)-2-(4-Chloro-2-fluorophenyl)-2-methylbenzo[d][1,3]dioxol-4-yl)-2,5-diazabicyclo[4.2.0]octan-2-yl)methyl)-4-fluoro-1-(((S)-oxetan-2-yl)methyl)-1H-benzo[d]imidazole-6-carboxylic acid] | 2.3 nM | 4.3 nM |
| C[C@]1(c2ccc(Cl)cn2)Oc2cccc(N3CCN(Cc4nc5c(Cl)cc(C(=O)O)cc5n4C[C@@H]4CCO4)[C@H]4CC[C@H]43)c2O1 (relative stereo) [Example 20a, 4-Chloro-2-(((1R*,6S*)-5-((R*)-2-(5-chloropyridin-2-yl)-2-methylbenzo[d1[1,3]dioxol-4-yl)-2,5-diazabicyclo[4.2.0]]octan-2-yl)methyl)-1-(((S)-oxetan-2-yl)methyl)-1H-benzo[d]imidazole-6-carboxylic acid] | 42 nM |  |
| C[C@]1(c2ccc(Cl)cn2)Oc2cccc(N3CCN(Cc4nc5c(Cl)cc(C(=O)O)cc5n4CC4(CC#N)CC4)[C@H]4CC[C@@H]43)c2O1 (single isomer, unassigned) [Example 26b] | 1.5 nM | 2 nM |
| COc1cc(C(=O)O)cc2c1nc(CN1CCN(c3cccc4c3O[C@@](C)(c3ccc(Cl)cn3)O4)[C@H]3CC[C@@H]31)n2CC1(C#N)CC1 (single isomer, unassigned) [Example 25c] | 1.2 nM | 3.1 nM |
| C[C@]1(c2ccc(Cl)cn2)Oc2cccc(N3CCN(Cc4nc5c(Cl)cc(C(=O)O)cc5n4C[C@@H]4CCO4)[C@H]4CC[C@H]43)c2O1 (single isomer, unassigned) [Example 20d, 4-Chloro-2-(((1R*,6S*)-5-((R*)-2-(5-chloropyridin-2-yl)-2-methylbenzo[d][1,3]dioxol-4-yl)-2,5-diazabicyclo[4.2.0]octan-2-yl)methyl)-1-(((S)-oxetan-2-yl)methyl)-1H-benzo[d]imidazole-6-carboxylic acid] | 2.5 nM | 2.8 nM |
| C[C@]1(c2ccc(Cl)cn2)Oc2cccc(N3CCN(Cc4nc5ccc(C(=O)O)cc5n4C[C@@H]4CCO4)[C@H]4CC[C@H]43)c2O1 (single isomer, unassigned) [Example 5b, 2-((1R*,6S*)-5-(R*)-2-(5-Chloropyridin-2-yl)-2-methylbenzo[d][1,3]dioxol-4-yl)-2,5-diazabicyclo[4.2.0]octan-2-yl)methyl)-1-(((S)-oxetan-2-yl)methyl)-1H-benzo[d]imidazole-6-carboxylic acid] | 18 nM | 120 nM |
| C[C@]1(c2ccc(Cl)cc2F)Oc2cccc(N3CCN(Cc4nc5ccc(C(=O)O)cc5n4C[C@@H]4CCO4)[C@H]4CC[C@H]43)c2O1 (single isomer, unassigned) [Example 18c] | 5.8 nM | 10 nM |

Further compounds by falling EC50 (human GLP-1R receptor), results first:

| EC50 (human GLP-1R receptor) | EC50 [1] | SMILES |
| --- | --- | --- |
| 140 nM |  | C[C@]1(c2ccc(Cl)cn2)Oc2cccc(N3CCN(Cc4nc5c(Cl)cc(C(=O)O)cc5n4C[C@@H]4CCO4)[C@H]4CC[C@H]43)c2O1 (single isomer, unassigned) [Example 20b, 4-Chloro-2-(((1R*,6S*)-5-((R*)-2-(5-chloropyridin-2-yl)-2-methylbenzo[d][1,3]dioxol-4-yl)-2,5-diazabicyclo[4.2.0]octan-2-yl)methyl)-1-(((S)-oxetan-2-yl)methyl)-1H-benzo[d]imidazole-6-carboxylic acid] |
| 66 nM | 280 nM | C[C@]1(c2ccc(Cl)cn2)Oc2cccc(N3CCN(Cc4nc5c(F)cc(C(=O)O)cc5n4C[C@@H]4CCO4)[C@H]4CC[C@H]43)c2O1 (single isomer, unassigned) [Example 1a, 2-((1R*,6S*)-5-(R*)-2-(5-Chloropyridin-2-yl)-2-methylbenzo[d][1,3]dioxol-4-yl)-2,5-diazabicyclo[4.2.0]octan-2-yl)methyl)-4-fluoro-1-(((S)-oxetan-2-yl)methyl)-1H-benzo[d]imidazole-6-carboxylic acid] |
| 29 nM | 49 nM | C[C@]1(c2ccc(Cl)cn2)Oc2cccc(N3CCN(Cc4nc5ccc(C(=O)O)cc5n4C[C@@H]4CCO4)[C@H]4CC[C@@H]43)c2O1 (single isomer, unassigned) [Example 22a, 2-(((1R*,6R*)-5-((R*)-2-(5-Chloropyridin-2-yl)-2-methylbenzo[d][1,3]dioxol-4-yl)-2,5-diazabicyclo[4.2.0]octan-2-yl)methyl)-1-(((S)-oxetan-2-yl)methyl)-1H-benzo[d]imidazole-6-carboxylic acid] |
| 19 nM | 76 nM | CCn1ccnc1Cn1c(CN2CCN(c3cccc4c3O[C@@](C)(c3ccc(Cl)cn3)O4)[C@H]3CC[C@@H]32)nc2c(Cl)cc(C(=O)O)cc21 (single isomer, unassigned) [Example 10b] |
| 6.2 nM | 7.5 nM | COc1cc(C(=O)O)cc2c1nc(CN1CCN(c3cccc4c3O[C@@](C)(c3ccc(Cl)cn3)O4)[C@H]3CC[C@@H]31)n2CC1(C#N)CC1 (single isomer, unassigned) [Example 25b] |
| 5.2 nM |  | COc1cc(C(=O)O)cc2c1nc(CN1CCN(c3cccc4c3OC(C)(c3ccc(Cl)cn3)O4)[C@H]3CC[C@@H]31)n2CCOC1CC1(F)F (mixture of isomers) [Example 13, rac-2-(((1R,6R)-5-(2-(5-Chloropyridin-2-yl)-2-methylbenzo[d][1,3]dioxol-4-yl)-2,5-diazabicyclo[4.2.0]octan-2-yl)methyl)-1-(2-(2,2-difluorocyclopropoxy)ethyl)-4-methoxy-1H-benzo[d]imidazole-6-carboxylic acid] |
| 1.1 nM | 2.8 nM | C[C@]1(c2ccc(Cl)cn2)Oc2cccc(N3CCN(Cc4nc5c(F)cc(C(=O)O)cc5n4CC4(CC#N)CC4)[C@H]4CC[C@@H]43)c2O1 (single isomer, unassigned) [Example 23a] |
